“And” between values parts separate entries of the source, which are not always exact repeats. Equal values may be shown once. Read-outs that look alike come from different tables or passages of the source.
Test system: primary acute myeloid leukemia (AML) cells obtained from patients
Assay: Kinase inhibitor library screening with and without NSC130362, primary AML cells
Format: cell-based, Human
[1] = ratio of EC50 for inhibitor to EC50 for inhibitor/NSC130362 combination, NSC130362 10 μM, Screen N 1
[2] = ratio of EC50 for inhibitor to EC50 for inhibitor/NSC130362 combination, NSC130362 10 μM, Screen N 2
[3] = ratio of EC50 for inhibitor to EC50 for inhibitor/NSC130362 combination, NSC130362 10 μM, Screen N 3

Row | SMILES | EC50 decrease, fold (Screen N 1) [1] | EC50 decrease, fold (Screen N 2) [2] | EC50 decrease, fold (Screen N 3) [3] | EC50 decrease, fold (Screen N 1) | EC50 decrease, fold (Screen N 2) | EC50 decrease, fold (Screen N 3)
1 | CCc1cc(Nc2nccc(-c3c(-c4ccc(OC)c(C(=O)Nc5c(F)cccc5F)c4)nc4ccccn34)n2)c(OC)cc1N1CCC(N2CCN(S(C)(=O)=O)CC2)CC1 [GSK-1904529A] | 41.6 fold | 1.0 fold | 44.8 fold | – | – | –
2 | COc1ccc(COc2ccc(Cc3cnc(N)nc3N)cc2OC)cc1 [GW-2580] | – | 1.0 fold | – | – | – | –
3 | CCc1nc(C(N)=O)c(Nc2ccc(N3CCC(N4CCN(C)CC4)CC3)c(OC)c2)nc1NC1CCOCC1 [Gilteritinib (ASP-2215)] | 0.2 fold | – | 1.3 fold | – | – | –
4 | CC(C)n1nc(-c2ccc3oc(N)nc3c2)c2c(N)ncnc21 [INK-128] | 0.0632 fold | 0.9 fold | 0.0858 fold | – | – | –
5 | Cc1ccc2nc(NC(=O)CSc3nc4c(c(=O)n3-c3ccccc3)SCC4)sc2c1 [IWP2] | – | 1.0 fold | – | – | – | –
6 | O=C(Nc1cccc2cccnc12)c1ccc(N2C(=O)[C@@H]3[C@H](C2=O)[C@@H]2C=C[C@H]3C2)cc1 [IWR1] | – | 1.0 fold | – | – | – | –
7 | COc1cc(C(=O)O)ccc1NC(=O)[C@@H]1N[C@@H](CC(C)(C)C)[C@](C#N)(c2ccc(Cl)cc2F)[C@H]1c1cccc(Cl)c1F [Idesanutlin] | – | 1.0 fold | – | – | – | –
8 | CC(C)NC[C@@H](C(=O)N1CCN(c2ncnc3c2[C@H](C)C[C@H]3O)CC1)c1ccc(Cl)cc1 [Ipatasertib (GDC-0068)] | – | 1.0 fold | – | – | – | –
9 | Nc1nc(Nc2ccc(S(N)(=O)=O)cc2)nn1C(=O)c1c(F)cccc1F [JNJ-7706621] | 3.7 fold | 1.0 fold | 0.182 fold | – | – | –
10 | CN(C)CC(=O)N1CCC(c2ccc(NC(=O)c3nc(C#N)c[nH]3)c(C3=CCCCC3)c2)CC1 [JNJ-28312141] | 0.3 fold | 1.0 fold | 2.3 fold | – | – | –
11 | Cn1cc(-c2ccc3nnc(C(F)(F)c4ccc5ncccc5c4)n3n2)cn1 [JNJ-38877605] | 7.6 fold | 1.0 fold | 0.00829 fold | – | – | –
12 | COc1cc(Oc2ccnc3cc(OC)c(OC)cc23)ccc1NC(=O)NC(C)c1nccs1 (centres unmarked) [KI20227] | 0.6 fold | 1.0 fold | 1.0 fold | – | – | –
13 | O=c1cc(-c2cccc3c2Sc2ccccc2S3)oc(N2CCOCC2)c1 [KU-55933] | 0.222 fold | 1.0 fold | 959.3 fold | – | – | –
14 | O=C(c1ccc(/C=C/c2n[nH]c3ccccc23)cc1)N1CCNCC1 [KW-2449] | 1.6 fold | 1.0 fold | 0.9 fold | – | – | –
15 | Cc1cc(-c2ncc(CC(=O)Nc3ccc(-c4cnccn4)cn3)cc2C)ccn1 [LGK974] | – | 1.0 fold | – | – | – | –
16 | CN(C)C[C@@H]1CCn2cc(c3ccccc32)C2=C(C(=O)NC2=O)c2cn(c3ccccc23)CCO1 [LY-333531] | 3.3 fold | 1.0 fold | 1.1 fold | – | – | –
17 | CS(=O)(=O)CCNCc1ccc(-c2ccc3ncnc(Nc4ccc(OCc5cccc(F)c5)c(Cl)c4)c3c2)o1 [Lapatinib] | – | 1.0 fold | – | – | – | –
18 | Nc1cccc2c1CN(C1CCC(=O)NC1=O)C2=O (centres unmarked) [Lenalidomide] | – | – | 1.4 fold | – | – | –
19 | COc1cc2nccc(Oc3ccc(NC(=O)NC4CC4)c(Cl)c3)c2cc1C(N)=O [Lenvatinib] | 1.9 fold | 1.0 fold | 1.5 fold | – | – | –
20 | Cc1ccc(F)c(NC(=O)Nc2ccc(-c3cccc4[nH]nc(N)c34)cc2)c1 [Linifanib (ABT-869)] | 261.0 fold | 1.4 fold | 1.0 fold | – | – | –
21 | CC[C@H](C)C(=O)O[C@H]1C[C@@H](C)C=C2C=C[C@H](C)[C@H](CC[C@@H]3C[C@@H](O)CC(=O)O3)[C@H]21 [Lovastatin] | – | – | 1.0 fold | – | – | –
22 | COCCNCc1ccc(-c2cc3nccc(Oc4ccc(NC(=S)NC(=O)Cc5ccc(F)cc5)cc4F)c3s2)nc1 [MGCD-265] | 6.0 fold | 1.0 fold | 97.6 fold | – | – | –
23 | NC1(c2ccc(-c3nc4ccn5c(=O)[nH]nc5c4cc3-c3ccccc3)cc2)CCC1 [MK-2206] | 15.9 fold | 1.0 fold | 1.0 fold | – | – | –

Row | SMILES | EC50 decrease, fold (Screen N 1) [1] | EC50 decrease, fold (Screen N 2) [2] | EC50 decrease, fold (Screen N 3) [3] | EC50 decrease, fold (Screen N 1) | EC50 decrease, fold (Screen N 2) | EC50 decrease, fold (Screen N 3)
24 | COc1c(Cl)cc2c([nH]c3cnccc32)c1NC(=O)c1cccnc1C [MLN120B] | 6.2 fold | 1.0 fold | 121.2 fold | – | – | –
25 | O=C(O)c1ccc(Nc2ncc3c(n2)-c2ccc(Cl)cc2C(c2c(F)cccc2F)=NC3)cc1 [MLN8054] | 1.3 fold | 1.0 fold | 0.001 fold | – | – | –
26 | Cc1ccc(NC(=O)c2ccc(CN3CCN(C)CC3)cc2)cc1Nc1nc(-c2cccnc2)cs1 [Masitinib (AB-1010)] | – | – | – | 0.174 fold | 1.0 fold | 3.7 fold
27 | CC1(C)CNc2cc(NC(=O)c3cccnc3NCc3ccncc3)ccc21 [Motesanib (AMG-706)] | 1.0 fold | 1.0 fold | 1.0 fold | – | – | –
28 | Nc1ncnc2c1c(-c1cccc(OCc3ccccc3)c1)cn2C1CC(CN2CCCC2)C1 (centres unmarked) [NVP-ADW742] | 3.1 fold | 1.0 fold | 1.0 fold | – | – | –
29 | COc1cc(N2CCC(N3CCN(C)CC3)CC2)ccc1Nc1ncc(Cl)c(Nc2ccccc2S(=O)(=O)C(C)C)n1 [NVP-TAE684] | 0.55 fold | 1.0 fold | 0.755 fold | – | – | –
30 | CCOc1cc2ncc(C#N)c(Nc3ccc(OCc4ccccn4)c(Cl)c3)c2cc1NC(=O)/C=C/CN(C)C [Neratinib (HKI-272)] | 5.7 fold | 1.0 fold | 1.0 fold | – | – | –
31 | Cc1cn(-c2cc(NC(=O)c3ccc(C)c(Nc4nccc(-c5cccnc5)n4)c3)cc(C(F)(F)F)c2)cn1 [Nilotinib] | – | 1.0 fold | 1.0 fold | – | – | –
32 | COc1ccc(C2=N[C@@H](c3ccc(Cl)cc3)[C@@H](c3ccc(Cl)cc3)N2C(=O)N2CCNC(=O)C2)c(OC(C)C)c1 [Nutlin 3a] | 0.1 fold | 1.0 fold | 0.9 fold | – | – | –
33 | COc1cc(OC)c(/C=C/S(=O)(=O)Cc2ccc(OC)c(NCC(=O)O)c2)c(OC)c1 [ON-01910] | – | 1.0 fold | – | – | – | –
34 | Cc1sc2c(c1C)C(c1ccc(Cl)cc1)=N[C@@H](CC(=O)Nc1ccc(O)cc1)c1nnc(C)n1-2 [OTX-015] | – | 0.8 fold | – | – | – | –
35 | CSc1cccc(Nc2ncc3cc(-c4c(Cl)cccc4Cl)c(=O)n(C)c3n2)c1 [PD173955] | 0.9 fold | 1.0 fold | 5.1 fold | – | – | –
36 | Cc1[nH]c(/C=C2\C(=O)Nc3ccc(S(=O)(=O)Cc4c(Cl)cccc4Cl)cc32)c(C)c1C(=O)N1CCC[C@@H]1CN1CCCC1 [PHA-665752] | 1.1 fold | 1.0 fold | 0.226 fold | – | – | –
37 | CCCCCCCCCCCCc1ccc(S(=O)(=O)Nc2nncs2)cc1 [PHT-427] | 1.0 fold | 1.0 fold | 1.0 fold | – | – | –
38 | Oc1cccc(-c2nc(N3CCOCC3)c3oc4ncccc4c3n2)c1 [PI-103] | 0.452 fold | 2.6 fold | 1089.9 fold | – | – | –
39 | NC(=O)c1cnc(N[C@@H]2CCCC[C@@H]2N)nc1Nc1cccc(-n2nccn2)c1 [PRT062607] | 8.1 fold | 1.0 fold | 265.0 fold | – | – | –
40 | CC(=O)c1c(C)c2cnc(Nc3ccc(N4CCNCC4)cn3)nc2n(C2CCCC2)c1=O [Palbociclib] | 1.6 fold | 1.0 fold | 1.8 fold | – | – | –
41 | Cc1[nH]c2ccccc2c1CCNCc1ccc(/C=C/C(=O)NO)cc1 [Panobinostat] | 9.3 fold | 1.2 fold | 0.0014 fold | – | – | –
42 | Cc1ccc(Nc2nccc(N(C)c3ccc4c(C)n(C)nc4c3)n2)cc1S(N)(=O)=O [Pazopanib (GW786034)] | 1.0 fold | 1.0 fold | 193.3 fold and 170.6 fold | – | – | –
43 | CCOc1cc2ncc(C#N)c(Nc3ccc(F)c(Cl)c3)c2cc1NC(=O)/C=C/CN(C)C [Pelitinib (EKB-569)] | 1.4 fold | 0.843 fold | 46.0 fold | – | – | –
44 | Cc1ccc(C(=O)Nc2ccc(CN3CCN(C)CC3)c(C(F)(F)F)c2)cc1C#Cc1cnc2cccnn12 [Ponatinib (AP24534)] | – | – | – | – | 0.9 fold and 1.1 fold | –
45 | CC(C)(C)c1cc(NC(=O)Nc2ccc(-c3cn4c(n3)sc3cc(OCCN5CCOCC5)ccc34)cc2)no1 [Quizartinib (AC220)] | – | 1.0 fold | – | – | – | –
46 | Cn1c(Nc2ccc(C(F)(F)F)cc2)nc2cc(Oc3ccnc(-c4ncc(C(F)(F)F)[nH]4)c3)ccc21 [RAF265 (CHIR-265)] | 2.6 fold | 0.8 fold | 0.0556 fold | – | – | –
